US20250262230A1, “HMGB1 Inhibitors for Treatment of APOE4-related Tauopathies including Alzheimer’s Disease” (The J. David Gladstone Institutes, a testamentary trust …, priority 2022, published 2025)

B1: HMGB1: recombinant HMGB1 protein used to treat primary neurons (protein, listed as Homo sapiens)
chain: MGKGDPKKPRGKMSSYAFFVQTCREEHKKKHPDASVNFSEFSKKCSERWKTMSAKEKGKFEDMAKADKARYEREMKTYIPPKGETKKKFKDPNAPKRPPSAFFLFCSEYRPKIKGEHPGLSIGDVAKKLGEMWNNTAADDKQPYEKKAAKLKEKYEKDIAAYRAKGKPDAAKKGVVKAEKSKKKKEEEEDEEDEEDEEEEEDEEDEDEEEDDDDE

Key:
PS19-fE4 primary neurons = test: Recombinant protein treatment of primary neurons, APOE sandwich ELISA of cell lysates; format: cell-based, mouse; settings: 10 μg/mL recombinant protein, 24 hours, day 14 in vitro
Experimental: (§1) Biochemically extracted mouse hippocampal tissue lysates were diluted in Milli-Q H2O to the appropriate concentration and were run according to the provided manufacturer protocols (human APOE (Abcam); mouse HMGB1 (Novus Biologicals). Reactions of samples were read on a SpectraMaX M5 spectrophotometer (Molecular Devices) and protein concentrations were determined after interpolating a standard curve and adjusting for dilutions.
(§2) Primary cultures of neurons were prepared from prenatal E20 pups of various genotypes. After collecting pup brains, the cortex plus hippocampus were isolated and placed in ice-cold dissociation media+kyneurenic acid media (DM/KY) (DM:Na2SO4 (81.8 mM); K2SO4 (30 mM); MgCl2 (5.8 mM), CaCl2) (0.25 mM); HEPES (1 mM); glucose (20 mM); phenol red (0.001%); NaOH (0.16 mM) in distilled H2O) (KY: kynurenic acid (10 mM); phenol red (0.0025%); HEPES (5 mM); MgCl2 (100 mM); NaOH (add dropwise until pH 7.4). The resulting DM/KY media was made by combining 90% DM with 10% KY media. The isolated tissue was finely minced and then submerged in pre-warmed Papain solution (1 mL per brain) for 13 minutes while gently inverting and then submerged in trypsin inhibitor solution for 5 minutes (5 mL for up to 10 brains) while gently inverting. The tissue pellet was washed with Optimem/Glucose solution (20 mM glucose, 1 mL per brain) while gently inverting. Then, fresh Optimem/Glucose solution was added and tissue was gently triturated until separated into single cells. After filtering the cells through a 40 um cell strainer, the dissociated cells were plated at 1×10^6 cells/well of a 12-well plate or 3×10^5 cells/well of a 24-well plate in Neurobasal medium supplemented with B27, 100 U/mL^−1 of penicillin G, 100 µg/mL^−1 of streptomycin, and 1% GlutaMAX (B27/Neurobasal). Every 3-4 days, half of the media was removed and replaced with fresh B27/Neurobasal media. In some experiments, primary neurons were treated with either a Dulbecco's PBS (dPBS) vehicle or a recombinant protein of interest (10 μg/mL for one well of a 12-well plate) for 24 hours at day 14 in vitro. […]
(§3) The inventors hypothesized that astrocytic APOE4 may regulate neuronal APOE4 expression by promoting the release of these factors that activate the neuronal ERK pathway, leading to increased neuronal APOE4 expression. […] The APOE protein levels were then quantitatively evaluated in the primary neuronal cell lysates by sandwich ELISA.
(§4) Experiments were also performed to determine whether HMGB1 is a potential modulatory factor of neuronal APOE4 expression. As such, primary neurons isolated from PS19-fE4/GFAP-Cre and PS19-fE4 mice were treated with 10 μg/mL of recombinant HMGB1 protein or a dPBS control and the APOE protein levels were quantitatively evaluated in cell lysates by sandwich ELISA.

[1] = test system: PS19-fE4/GFAP-Cre primary neurons; test: as above; format: cell-based, mouse; settings: 10 μg/mL recombinant protein, 24 hours, day 14 in vitro
Experimental: as §1, §2, §3, §4

Molecule | APOE protein levels in cell lysates vs dPBS control (PS19-fE4 primary neurons) | increase in APOE protein levels relative to the dPBS control [1] [%] | APOE protein levels in cell lysates vs dPBS control [1]
DPP10: recombinant DPP10 protein used to treat primary neurons | no significant difference in APOE levels | 98 | 
B1 | A significant difference was not observed |  | A significant difference was not observed
